“Also recorded” adds a separate entry of the source.
Assays:
murine CD47/SIRPα = molecular target: T1, murine CD47/SIRPα (Mus musculus, UniProt P97797); assay: Cell-based blocking assay, murine CD47/SIRPα; conditions: CHO-K1-mCD47 cells, SIRPα-Fc, flow cytometry; read-out: IC50 for blocking murine CD47/SIRPα interaction
T1 construct: purchased ACRO Biosystems SIA-M5258; host or cells: CHO-K1-mCD47 cells carry the partner (lentiviral transfection)
Procedure: (§1) The CHO-K1 cell line with stable expression of CD47 and PD-1 was constructed previously by our group. SMC18 was serially diluted using PBS 7.2 (containing 1% DMSO) and incubated with 100 ng of SIRPα-Fc protein (human: SIA-H5251, mouse: SIA-M5258, ACRO Biosystems) and 50 ng of PD-L1-Fc protein (human: 10,084-H02H, mouse: 50,010-M02H, Sino Biological) on ice for 30 min. The mixture was then added to the corresponding CHO-K1-CD47 or CHO-K1-PD-1 cells and further incubated on ice for 30 min. Afterward, PE-conjugated anti-human IgG (Fc) antibody (A18272, eBioscience) was added. The mean fluorescence intensity (MFI) of the cells was detected using flow cytometry (BD FACSCalibur) and the blocking efficiency was calculated.

hTIM-3/hGal-9 = hTIM-3/hGal-9 (Homo sapiens, UniProt O00182+Q8TDQ0); assay: Blockade of other immune checkpoint pathways, TIM-3/Gal-9; assay type: cell-based; conditions: Fig. S2
Sequence of hTIM-3/hGal-9 (Q8TDQ0 22-301): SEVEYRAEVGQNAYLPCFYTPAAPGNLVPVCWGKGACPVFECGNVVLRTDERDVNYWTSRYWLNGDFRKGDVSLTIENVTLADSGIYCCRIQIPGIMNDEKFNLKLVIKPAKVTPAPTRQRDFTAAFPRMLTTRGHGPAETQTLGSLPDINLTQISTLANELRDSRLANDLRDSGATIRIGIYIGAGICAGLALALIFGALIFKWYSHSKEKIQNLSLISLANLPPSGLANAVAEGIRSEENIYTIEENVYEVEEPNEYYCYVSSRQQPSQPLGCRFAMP
Sequence of hTIM-3/hGal-9 (O00182 whole entry): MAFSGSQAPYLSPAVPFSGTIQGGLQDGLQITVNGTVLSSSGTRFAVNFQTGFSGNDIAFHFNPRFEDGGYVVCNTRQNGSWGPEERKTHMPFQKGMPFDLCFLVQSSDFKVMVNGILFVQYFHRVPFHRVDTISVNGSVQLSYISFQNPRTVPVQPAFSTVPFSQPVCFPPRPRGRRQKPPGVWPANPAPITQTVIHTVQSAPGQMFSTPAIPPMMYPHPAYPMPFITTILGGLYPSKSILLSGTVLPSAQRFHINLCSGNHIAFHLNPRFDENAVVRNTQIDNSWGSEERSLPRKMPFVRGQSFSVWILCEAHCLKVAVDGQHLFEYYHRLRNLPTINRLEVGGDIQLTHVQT

human SIRPα (hSIRPα) = molecular target: T2, human SIRPα (hSIRPα) (Homo sapiens, UniProt P78324); assay: MST binding assay, human SIRPα; conditions: SIRPα-IgV-His, read-out: dissociation constant (KD) for human SIRPα
T2 construct: SIPRα-IgV-His (human: SIA-H5225, mouse: SIA-M52H4, ACRO Biosystems); His; purchased ACRO Biosystems SIA-H5225
T2 sequence (P78324 32-137 limits assumed): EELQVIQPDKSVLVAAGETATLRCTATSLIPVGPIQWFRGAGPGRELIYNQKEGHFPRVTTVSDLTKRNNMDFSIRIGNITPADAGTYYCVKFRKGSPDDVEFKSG
Procedure: (§2) SIPRα-IgV-His (human: SIA-H5225, mouse: SIA-M52H4, ACRO Biosystems) and PD-L1-IgV-His (human: 10,084-H08H, mouse: 50,010-M08H, Sino Biological) proteins were labeled with Red-NHS647 dye (NT-MO-L001, NanoTemper) for subsequent experiments. SMC18 (C385-0664, ChemDiv) was serially diluted using PBST (from 0.0191 μM to 200 μM) and mixed with the labeled proteins. The samples were then aspirated using standard capillaries and assayed by MST instrument (Monolith NT.115, NanoTemper), and the results were analyzed using the analytical software Monolith NT.115 system to calculate the dissociation constant (KD) values.

[1] = test system: GFP+ B16-OVA cells phagocytosed by BMDMs; assay: Phagocytosis assay, BMDMs with GFP+ B16-OVA cells; assay type: cell-based, mouse; conditions: 50 μM, flow cytometry
Procedure: (§3) Bone marrow-derived macrophage cells (BMDMs) from C57BL/6N mice were isolated and induced with 20 ng/mL of mouse granulocyte–macrophage colony-stimulating factor (GM-CSF, 315–03, Peprotech) for 7 days, with regular medium changes and cytokine replenishment during cell induction. The cells were then harvested for subsequent experiments. Subsequently, the cells were treated with SMC18 at a concentration of 50 μΜ. The anti-CD47 antibody (clone miap301, 16–0471-81, Invitrogen) was employed as a positive control with 20 µg/mL. Phagocytosis was measured by the co-culture of macrophages with green fluorescent protein (GFP^+) tumor cells (GFP^+ MC38 and GFP^+ B16-OVA cells) at a ratio of 1:4 in serum-free medium at 37 °C for 4 h. The cells were harvested and identified by flow cytometry using anti-F4/80 antibody (BM8, 17–4801-82, eBioscience). The phagocytosis rate was calculated as the percentage F4/80^+GFP^+ cells relative to the total number of total F4/80^+ cells. For confocal microscopy detection, BMDMs were labelled with DiR dye (R-22070, Beyotime) at a final concentration of 200 μM, followed by a 30-min staining period. After washing with PBS three times, the cells were cultured with DMEM medium devoid of serum for 2 h. Subsequently, MC38-EGFP cells were seeded onto BMDMs at a density of 4 × 10^6 cells per well. […]

murine SIRPα (mSIRPα) = molecular target: T3, murine SIRPα (mSIRPα) (Mus musculus, UniProt P97797); assay: MST binding assay, murine SIRPα; conditions: SIRPα-IgV-His, read-out: dissociation constant (KD) for murine SIRPα
T3 construct: SIPRα-IgV-His (human: SIA-H5225, mouse: SIA-M52H4, ACRO Biosystems); His; purchased ACRO Biosystems SIA-M52H4
T3 sequence (P97797 32-137 limits assumed): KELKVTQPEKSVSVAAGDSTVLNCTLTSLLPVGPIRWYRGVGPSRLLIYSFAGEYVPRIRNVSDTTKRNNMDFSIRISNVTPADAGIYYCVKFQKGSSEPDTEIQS
Procedure: as §2

hTIGIT/hPVR = hTIGIT/hPVR (Homo sapiens, UniProt P15151+Q495A1); assay: Blockade of other immune checkpoint pathways, TIGIT/PVR; assay type: cell-based; conditions: Fig. S2
Sequence of hTIGIT/hPVR (Q495A1 22-244): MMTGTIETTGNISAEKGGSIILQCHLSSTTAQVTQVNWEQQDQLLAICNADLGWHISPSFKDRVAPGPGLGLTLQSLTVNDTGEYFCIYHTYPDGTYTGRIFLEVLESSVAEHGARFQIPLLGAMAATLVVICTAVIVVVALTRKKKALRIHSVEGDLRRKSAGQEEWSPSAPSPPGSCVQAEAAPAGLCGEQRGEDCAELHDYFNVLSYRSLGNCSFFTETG
Sequence of hTIGIT/hPVR (P15151 21-417): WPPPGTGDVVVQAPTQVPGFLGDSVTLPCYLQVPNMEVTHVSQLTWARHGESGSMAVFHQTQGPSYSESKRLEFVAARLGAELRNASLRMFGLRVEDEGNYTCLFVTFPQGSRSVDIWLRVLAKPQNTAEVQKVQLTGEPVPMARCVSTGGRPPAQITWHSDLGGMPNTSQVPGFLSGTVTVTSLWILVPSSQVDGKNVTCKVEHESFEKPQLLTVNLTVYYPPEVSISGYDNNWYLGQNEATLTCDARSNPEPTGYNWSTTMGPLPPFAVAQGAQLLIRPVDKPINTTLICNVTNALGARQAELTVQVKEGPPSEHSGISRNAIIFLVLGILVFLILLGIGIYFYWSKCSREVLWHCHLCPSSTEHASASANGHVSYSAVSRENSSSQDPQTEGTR

human PD-1/PD-L1 = molecular target: T4, human PD-1/PD-L1 (Homo sapiens, UniProt Q9NZQ7); assay: Cell-based blocking assay, human PD-1/PD-L1; conditions: CHO-K1-hPD-1 cells, PD-L1-Fc, flow cytometry; read-out: IC50 for blocking human PD-1/PD-L1 interaction
T4 construct: purchased Sino Biological 10,084-H02H; host or cells: CHO-K1-hPD-1 cells carry the partner (lentiviral transfection)
T4 sequence (Q9NZQ7 19-239 limits assumed): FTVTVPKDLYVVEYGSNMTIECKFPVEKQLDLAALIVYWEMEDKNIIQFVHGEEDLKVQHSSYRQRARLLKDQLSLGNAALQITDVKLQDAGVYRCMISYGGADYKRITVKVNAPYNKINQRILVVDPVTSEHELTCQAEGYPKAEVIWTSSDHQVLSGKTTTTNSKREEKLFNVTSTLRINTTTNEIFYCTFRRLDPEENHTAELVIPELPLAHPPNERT
Procedure: as §1

murine PD-L1 (mPD-L1) = molecular target: T5, murine PD-L1 (mPD-L1) (Mus musculus, UniProt Q9EP73); assay: MST binding assay, murine PD-L1; conditions: PD-L1-IgV-His, read-out: dissociation constant (KD) for murine PD-L1
T5 construct: PD-L1-IgV-His (human: 10,084-H08H, mouse: 50,010-M08H, Sino Biological); His; purchased Sino Biological 50,010-M08H
T5 sequence (Q9EP73 19-127 limits assumed): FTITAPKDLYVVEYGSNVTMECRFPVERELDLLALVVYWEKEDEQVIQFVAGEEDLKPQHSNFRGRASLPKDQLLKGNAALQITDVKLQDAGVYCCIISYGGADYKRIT
Procedure: as §2

[2] = test system: GFP+ MC38 cells phagocytosed by BMDMs; assay: Phagocytosis assay, BMDMs with GFP+ MC38 cells; assay type: cell-based, mouse; conditions: 50 μM
Procedure: as §3

hCD112R/hCD112 = hCD112R/hCD112 (Homo sapiens, UniProt Q6DKI7+Q92692); assay: Blockade of other immune checkpoint pathways, CD112R/CD112; assay type: cell-based; conditions: Fig. S2
Sequence of hCD112R/hCD112 (Q6DKI7 whole entry): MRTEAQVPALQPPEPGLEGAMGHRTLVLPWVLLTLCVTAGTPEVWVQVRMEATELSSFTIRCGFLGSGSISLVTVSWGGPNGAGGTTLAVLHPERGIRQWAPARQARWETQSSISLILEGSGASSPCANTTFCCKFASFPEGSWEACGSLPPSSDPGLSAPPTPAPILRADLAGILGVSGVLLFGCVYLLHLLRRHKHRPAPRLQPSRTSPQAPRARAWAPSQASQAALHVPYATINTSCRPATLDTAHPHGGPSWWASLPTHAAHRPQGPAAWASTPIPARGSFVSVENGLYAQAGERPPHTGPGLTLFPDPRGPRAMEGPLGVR
Sequence of hCD112R/hCD112 (Q92692 32-538): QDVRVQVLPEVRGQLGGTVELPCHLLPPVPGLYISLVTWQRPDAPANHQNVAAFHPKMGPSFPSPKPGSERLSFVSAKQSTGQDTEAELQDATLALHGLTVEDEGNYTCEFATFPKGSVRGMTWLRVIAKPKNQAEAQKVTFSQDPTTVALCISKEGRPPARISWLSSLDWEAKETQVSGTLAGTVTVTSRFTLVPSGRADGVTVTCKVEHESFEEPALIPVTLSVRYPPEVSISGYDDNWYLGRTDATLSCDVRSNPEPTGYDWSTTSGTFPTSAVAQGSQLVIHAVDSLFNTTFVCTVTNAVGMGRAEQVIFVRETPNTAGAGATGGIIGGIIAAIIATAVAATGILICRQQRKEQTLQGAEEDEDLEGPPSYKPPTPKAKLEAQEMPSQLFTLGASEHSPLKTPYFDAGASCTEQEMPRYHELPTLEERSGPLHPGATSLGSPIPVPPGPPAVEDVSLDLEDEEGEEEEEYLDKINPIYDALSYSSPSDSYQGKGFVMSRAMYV

human CD47/SIRPα = molecular target: T6, human CD47/SIRPα (Homo sapiens, UniProt P78324); assay: Cell-based blocking assay, human CD47/SIRPα; conditions: CHO-K1-hCD47 cells, SIRPα-Fc, flow cytometry; read-out: IC50 for blocking human CD47/SIRPα interaction
T6 construct: purchased ACRO Biosystems SIA-H5251; host or cells: CHO-K1-hCD47 cells carry the partner (lentiviral transfection)
T6 sequence (P78324 31-370 limits assumed): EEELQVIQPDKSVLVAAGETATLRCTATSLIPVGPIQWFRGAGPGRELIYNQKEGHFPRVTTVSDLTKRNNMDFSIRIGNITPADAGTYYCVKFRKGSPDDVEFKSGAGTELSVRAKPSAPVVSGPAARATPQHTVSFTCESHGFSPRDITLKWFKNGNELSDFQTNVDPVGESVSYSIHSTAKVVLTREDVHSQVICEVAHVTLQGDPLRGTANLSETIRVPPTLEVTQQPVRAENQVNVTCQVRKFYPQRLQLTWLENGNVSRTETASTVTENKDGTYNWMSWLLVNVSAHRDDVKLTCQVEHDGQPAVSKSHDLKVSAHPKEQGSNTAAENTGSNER
Procedure: as §1

T1 sequence (P97797 32-373 limits assumed): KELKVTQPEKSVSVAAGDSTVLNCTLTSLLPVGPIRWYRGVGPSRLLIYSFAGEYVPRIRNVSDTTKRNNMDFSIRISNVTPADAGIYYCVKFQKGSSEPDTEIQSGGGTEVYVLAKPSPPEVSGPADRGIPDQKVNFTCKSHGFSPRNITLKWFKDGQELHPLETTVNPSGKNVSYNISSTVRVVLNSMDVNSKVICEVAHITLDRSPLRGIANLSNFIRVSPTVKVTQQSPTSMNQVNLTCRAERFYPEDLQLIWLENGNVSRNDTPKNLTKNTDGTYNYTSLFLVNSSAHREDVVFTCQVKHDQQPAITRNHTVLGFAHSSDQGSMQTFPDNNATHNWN

SMILES: Cc1cc(C)cc(NS(=O)(=O)c2ccc3[nH]cc(C(=O)NCCc4ccccc4)c(=O)c3c2)c1 [SMC18]
- IC50 (murine CD47/SIRPα): 58.9 ± 3.2 µM
- inhibitory effect on hTIM-3/hGal-9 pathway (hTIM-3/hGal-9): no blocking effect; also recorded: did not impede
- Kd (human SIRPα (hSIRPα)): 550 ± 100 nM
- phagocytosis of B16-OVA cells by BMDMs [1]: enhances; also recorded: significantly increased
- Kd (murine SIRPα (mSIRPα)): 2490 ± 1900 nM
- inhibitory effect on hTIGIT/hPVR pathway (hTIGIT/hPVR): no blocking effect; also recorded: did not impede
- IC50 (human PD-1/PD-L1): 19.7 ± 7 µM
- Kd (murine PD-L1 (mPD-L1)): 25 ± 30 nM
- phagocytosis of MC38 by BMDMs (flow cytometry) ([2]; 4 h): significantly increased
- macrophage phagocytosis of MC38 cells (confocal) ([2]; DiR-labelled BMDMs, MC38-EGFP, vs control group): significantly enhanced
- inhibitory effect on hCD112R/hCD112 pathway (hCD112R/hCD112): no blocking effect; also recorded: did not impede
- IC50 (human CD47/SIRPα): 17.8 ± 8.2 µM

From paper PMC10926604, “Discovery of a novel small molecule as CD47/SIRPα and PD-1/PD-L1 dual inhibitor for cancer immunotherapy” (Cell Communication and Signaling : CCS, 2024)
